Laboratory results as given in patent publication US8957114B2, “Formulations, salts and polymorphs of transnorsertraline and uses thereof” (Sunovion Pharmaceuticals Inc., priority 2009, dated 2015).
Like-named read-outs stand apart in the source and are kept apart here.

How the values were obtained:
[1] = VTI moisture sorption isotherm (hygroscopicity); assay type: physicochemical; conditions: 25° C.
Description: (§1) Each salt was analyzed by coulometric titration using an EM Scientific Aquastar C3000 titrator to determine water content. […] Each salt was analyzed using a Perkin Elmer TGA 7 Thermal Gravimetric Analyzer (TGA). […] Moisture sorption isotherms for each salt were generated using the VTI SGA-100 Symmetric Vapor Sorption Analyzer. Samples were run as received without pre-analysis drying. Equilibrium criteria were the lesser of 0.01 wt % change in 5 minutes or 180 minutes at each relative humidity (RH) step. […] Analysis was repeated for each sample in consecutive analyses (sample was not removed from analyzer). Sample sizes ranged from 18 mg to 35 mg.

[2] = Moisture content by coulometric Karl Fischer titration (KF); assay type: physicochemical
Description: as §1

[3] = Thermal gravimetric analysis (TGA) weight loss; assay type: physicochemical; conditions: heated 25° C. to 325° C. at 10° C./min
Description: The sixteen salts of transnorsertraline of Example 6.14 were analyzed for moisture content and hygroscopicity. Each salt was analyzed by coulometric titration using an EM Scientific Aquastar C3000 titrator to determine water content. Sample size ranged from 18 mg to 134 mg. Each salt was analyzed using a Perkin Elmer TGA 7 Thermal Gravimetric Analyzer (TGA). […] Moisture sorption isotherms for each salt were generated using the VTI SGA-100 Symmetric Vapor Sorption Analyzer. Samples were run as received without pre-analysis drying. Equilibrium criteria were the lesser of 0.01 wt % change in 5 minutes or 180 minutes at each relative humidity (RH) step. Temperature was fixed at 25° C. and the relative humidity steps (25 to 95% to 25%) were in 5% increments. Analysis was repeated for each sample in consecutive analyses (sample was not removed from analyzer). Sample sizes ranged from 18 mg to 35 mg.

[4] = Solubility of transnorsertraline salts in de-ionized water (HPLC); conditions: for Solubility in Freebase Equivalents mgA/mL: de-ionized water, ambient, shaken up to nine days until equilibrium; for pH: saturated solution in de-ionized water
Description: For each salt, saturated solutions with excess solids in deionized water were prepared in 20 mL clear glass scintillation vials with screw caps. All samples were shaken at 300 rpm at ambient conditions for up to nine days until equilibrium was achieved. Solubility was determined using a HPLC method (Table 5).

[5] = Solubility of transnorsertraline salts in aqueous buffer systems (SGF, acetate buffer pH 4.5, SIF; HPLC); assay type: physicochemical
Description: Saturated solutions with excess solids were prepared in 20 mL clear glass scintillation vials. Simulated gastric fluid (pH 1.0, ˜0.1N HCl, 0.03M NaCl, no enzymes), simulated intestinal fluid (pH 6.8, 0.05M KH2PO4, ˜0.02N NaOH, no enzymes), and acetate buffer (pH 4.5, 0.02M sodium acetate, 0.03M acetic acid) were prepared in accordance with USP28 (USP28 Test Solutions p2855, Volumetric Solutions p2863). […] Solubility was determined using a HPLC method.

[6] = Open dish excipient compatibility study Set 1a/1b (Active 1 with single excipients), 40° C./75% RH, 3 weeks, % impurities; assay type: physicochemical
Description: A Zorban SB-CN […], 25 cm×4.6 mm analytical column using a 0.05% trifluoroacetic acid in a 80:20 water:acetonitrile solution (Mobile Phase A) followed by a 0.05% trifluoroacetic acid in a 15:85 water:acetonitrile solution (Mobile Phase B) was used. Column temperature: 30° C. The flow rate: 1.0 mL/min. Injection volume: 50 μL. Wavelength: 220 nm. Minimum run time: 50 min (15 min delay). Mobile Phase gradient: […]
Transnorsertraline HCl (1) (“Active 1”) was mixed with each excipient present in 1 mg capsule strength respectively. The samples contained two different ratios (1:1 and as in the 1 mg capsules) of active and excipients.

[7] = repeated consecutive analysis (second line)
[8] = 0.05M Acetate Buffer (pH 4.5), ambient, up to nine days
[9] = Simulated Gastric Fluid (no enzymes), ambient, up to nine days
[10] = Simulated Intestinal Fluid (pH 6.8, no enzymes), ambient, up to nine days
[11] = saturated solution in 0.05M Acetate Buffer (pH 4.5)
[12] = saturated solution in Simulated Gastric Fluid
[13] = saturated solution in Simulated Intestinal Fluid
[14] = first analysis, listed as Acetate lot 1
[15] = first analysis, listed as Acetate lot 2
[16] = first analysis, listed as Acetate lot 3
[17] = repeated consecutive analysis (second line), listed as Acetate lot 1
[18] = repeated consecutive analysis (second line), listed as Acetate lot 2
[19] = repeated consecutive analysis (second line), listed as Acetate lot 3
[20] = Set 1a, active:excipient 1:1, open dish 40° C./75% RH
[21] = Set 1b, active:excipient ratio as in 1 mg capsules, open dish 40° C./75% RH

Compound	VTI Adsorp. (% wt gain 25 to 95% RH) ([1]; first analysis)	Initial KF (% H2O) [2]	VTI Desorp. (% wt loss 95 to 25% RH) ([1]; first analysis)	VTI Adsorp. (% wt gain 25 to 95% RH) [1, 7]	TGA (% wt loss) [3]	VTI Desorp. (% wt loss 95 to 25% RH) [1, 7]	pH [4]	pH [5, 11]	pH [5, 12]	pH [5, 13]	further results
N[C@@H]1CC[C@@H](c2ccc(Cl)c(Cl)c2)c2ccccc21.O=C1CC[C@@H](C(=O)O)N1	17.28 % wt gain	0.10 % H2O	–	–	–	–	–	–	–	–	–
O=S(=O)(O)O [Sulfate]	10.19 % wt gain	3.34 % H2O	9.51 % wt loss	7.25 % wt gain	4.20 % wt loss	–	–	–	–	–	–
Benzoate	0.10 % wt gain	0.27 % H2O	0.10 % wt loss	0.08 % wt gain	0.05 % wt loss	0.07 % wt loss	–	–	–	–	–
Citrate	2.59 % wt gain	0.31 % H2O	3.96 % wt loss	3.24 % wt gain	–	3.61 % wt loss	–	–	–	–	–
Fumarate	0.18 % wt gain	0.40 % H2O	0.17 % wt loss	0.17 % wt gain	0.81 % wt loss	0.16 % wt loss	5.30	4.60	1.25	6.63	Solubility in Freebase Equivalents mgA/mL [4]: 0.52 mgA/mL; Solubility in Freebase Equivalents mgA/mL [5, 8]: 0.69 mgA/mL; Solubility in Freebase Equivalents mgA/mL [5, 9]: <0.01 mgA/mL; Solubility in Freebase Equivalents mgA/mL [5, 10]: 0.30 mgA/mL
L-tartrate	3.52 % wt gain	0.62 % H2O	1.36 % wt loss	1.37 % wt gain	–	–	2.63	4.58	1.24	6.73	–
Maleate	0.10 % wt gain	0.06 % H2O	0.09 % wt loss	0.08 % wt gain	0.02 % wt loss	0.08 % wt loss	3.98	4.52	1.25	6.47	Solubility in Freebase Equivalents mgA/mL [4]: 1.88 mgA/mL; Solubility in Freebase Equivalents mgA/mL [5, 8]: 1.23 mgA/mL; Solubility in Freebase Equivalents mgA/mL [5, 9]: 0.08 mgA/mL; Solubility in Freebase Equivalents mgA/mL [5, 10]: 0.28 mgA/mL
Phosphate	3.00 % wt gain	0.16 % H2O	1.37 % wt loss	2.14 % wt gain	–	1.20 % wt loss	3.27	4.55	1.24	6.49	Solubility in Freebase Equivalents mgA/mL ([5]; pH 1): <0.01 mgA/mL; Solubility in Freebase Equivalents mgA/mL ([5]; pH 4.5): 2.63 mgA/mL; Solubility in Freebase Equivalents mgA/mL ([5]; pH 6.8): 0.27 mgA/mL
S-mandelate	3.24 % wt gain	0.32 % H2O	3.95 % wt loss	3.79 % wt gain	–	3.02 % wt loss	–	–	–	–	–
Succinate	3.25 % wt gain	1.03 % H2O	3.17 % wt loss	–	–	–	3.89	4.50	1.27	6.46	–
Tosylate	0.06 % wt gain	0.09 % H2O	0.06 % wt loss	–	0.16 % wt loss	–	6.16	4.56	1.10	6.78	Solubility in Freebase Equivalents mgA/mL [4]: 0.53 mgA/mL; Solubility in Freebase Equivalents mgA/mL [5, 8]: 0.63 mgA/mL; Solubility in Freebase Equivalents mgA/mL [5, 9]: 0.06 mgA/mL; Solubility in Freebase Equivalents mgA/mL [5, 10]: 0.21 mgA/mL
Transnorsertraline Acetate	0.07 % wt gain	0.03 % H2O	0.08 % wt loss	0.08 % wt gain	0.53 % wt loss	0.09 % wt loss	6.31	4.79	1.26	6.63	VTI Adsorp. (% wt gain 25 to 95% RH) [1, 14]: 0.07 % wt gain; VTI Desorp. (% wt loss 95 to 25% RH) [1, 14]: 0.08 % wt loss; VTI Adsorp. (% wt gain 25 to 95% RH) [1, 15]: 0.22 % wt gain; VTI Desorp. (% wt loss 95 to 25% RH) [1, 15]: 0.23 % wt loss; VTI Adsorp. (% wt gain 25 to 95% RH) [1, 16]: 0.33 % wt gain; VTI Desorp. (% wt loss 95 to 25% RH) [1, 16]: 0.38 % wt loss; VTI Adsorp. (% wt gain 25 to 95% RH) [1, 17]: 0.08 % wt gain; VTI Desorp. (% wt loss 95 to 25% RH) [1, 17]: 0.09 % wt loss; VTI Adsorp. (% wt gain 25 to 95% RH) [1, 18]: 0.23 % wt gain; VTI Desorp. (% wt loss 95 to 25% RH) [1, 18]: 0.23 % wt loss; VTI Adsorp. (% wt gain 25 to 95% RH) [1, 19]: 0.35 % wt gain; VTI Desorp. (% wt loss 95 to 25% RH) [1, 19]: 0.35 % wt loss; Solubility in Freebase Equivalents mgA/mL ([5]; pH 1): 0.07 mgA/mL; Solubility in Freebase Equivalents mgA/mL ([5]; pH 4.5): 3.12 mgA/mL; Solubility in Freebase Equivalents mgA/mL ([5]; pH 6.8): 0.25 mgA/mL; Initial KF (% H2O) ([2]; listed as Acetate lot 1): 0.03 % H2O; Initial KF (% H2O) ([2]; listed as Acetate lot 2): 0.07 % H2O; Initial KF (% H2O) ([2]; listed as Acetate lot 3): 0.05 % H2O; TGA (% wt loss) ([3]; listed as Acetate lot 1): 0.43 % wt loss
Transnorsertraline HCl [active 1]	–	–	–	–	–	–	–	–	–	–	% Active [6, 20]: 99.68%; % Impurities, peak RRT 0.764 [6, 20]: 0.05%; % Impurities, peak RRT 0.862, Synthetic Impurity 1 [6, 20]: 0.04%; % Impurities, peak RRT 0.885, Synthetic Impurity 2 [6, 20]: 0.05%; % Impurities, peak RRT 1.07, cis-diastereomer [6, 20]: 0.12%; % Impurities, peak RRT 1.386 [6, 20]: 0.07%; % Total Impurities [6, 20]: 0.33%; impurities formed due to the presence of excipients ([6]; Set 1a, ratio of active to excipient 1:1, 40° C./75% RH): no appreciable impurities formed; % Active [6, 21]: 99.68%; % Impurities, peak RRT 0.764 [6, 21]: 0.05%; % Impurities, peak RRT 0.862, Synthetic Impurity 1 [6, 21]: 0.04%; % Impurities, peak RRT 0.885, Synthetic Impurity 2 [6, 21]: 0.05%; % Impurities, peak RRT 1.07, cis-diastereomer [6, 21]: 0.12%; % Impurities, peak RRT 1.386 [6, 21]: 0.07%; % Total Impurities [6, 21]: 0.33%
